The record followed here is ChEMBL document CHEMBL6177988, “Design, synthesis, biophysical and biological evaluation of original condensed pyrrolopyrimidine and pyrrolopyridine ligands as anti-SARS-CoV-2 agents targeting G4” (Eur J Med Chem, 2025).

Data set [1] concerns Quadruplex DNA. The experiment in a line: Thermal stabilization of human telomeric G-quadruplex F21T DNA (FAM-5'-GGGTTAGGGTTAGGGTTAGGG-3'-TAMRA) assessed as change in half-width of melting temperature at 2 uM by FRET-melting assay. It counts as nucleic-acid assay.
For data set [2], the system named is Non-structural protein 3/TRF2 G-quadruplex ribonucleic acid. The experiment in a line: Inhibition of N-terminal His-tagged SARS-CoV-2 Nsp3 SUD-NM domain (413-676 residues)/SARS-CoV-2 TRF2 G-quadruplex RNA incubated for 2 hrs by HTRF assay. The data set is classed as protein assay, Severe acute respiratory syndrome coronavirus 2. (In general: TR-FRET usually uses a lanthanide donor and a delayed reading to cut background.)

The nature of data set [3]: Cytotoxicity against human Caco-2 cells harboring ACE2-CI33 assessed as cell viability by celltiter glo assay. It counts as toxicity, cell-based. Background: In ATP-based viability assays light output follows the ATP content of the culture.
For data set [4], the system named is Quadruplex DNA. The experiment in a line: Thermal stabilization of human telomeric G-quadruplex F21T DNA (FAM-5'-GGGTTAGGGTTAGGGTTAGGG-3'-TAMRA) assessed as change in half-width of melting temperature at 0.5 uM by FRET-melting assay. The data set is classed as nucleic-acid assay.
Data set [5] has as its system Quadruplex DNA. The experiment in a line: Thermal stabilization of human telomeric G-quadruplex F21T DNA (FAM-5'-GGGTTAGGGTTAGGGTTAGGG-3'-TAMRA) assessed as change in half-width of melting temperature at 1 uM by FRET-melting assay. The data set is classed as nucleic-acid assay.
Data set [6] can be described thus: Cytotoxicity against human A549 cells harboring ACE2-CI33 assessed as cell viability by celltiter glo assay. The data set is classed as toxicity, cell-based.

Usually IC50 stands for the concentration that gives 50% inhibition. Lower therefore signals higher potency. A word on the CC50: it is the concentration that lowers cell viability or growth by half.

SMILES strings stand for the structures.

Take `CN(C)CCCNCc1ccc(-c2cn(-c3ccc(CNCCCN(C)C)cc3)c3ncnc(-c4ccc(CNCCCN(C)C)cc4)c23)cc1`: in the data set with Quadruplex DNA [1], the deltaTm1/2 is 20.3 °C. Also, in data set [2], the IC50 turned out to be 46 nM.
In the case of `CN(C)CCCNCc1ccc(-c2nc(-c3ccc(CNCCCN(C)C)cc3)c3ccn(-c4ccc(CNCCCN(C)C)cc4)c3n2)cc1`, the deltaTm1/2 in the data set with Quadruplex DNA [1] turned out to be 34.9 °C. For the same molecule, the CC50 at 75 h in data set [3] is at least 7200 nM. Moreover, the IC50 in data set [2] was 50 nM.
For `CCN(CC)CCCCNCc1ccc(-c2cc3c(ccn3-c3ccccc3)c(-c3ccc(CNCCCCN(CC)CC)cc3)n2)cc1`, in the data set on Quadruplex DNA [1], the deltaTm1/2 was 28.7 °C. Moreover, the IC50 in data set [2] came to 446 nM.
As for `CN(C)CCCCCNCc1ccc(-c2cn(-c3ccccc3)c3ncnc(-c4ccc(CNCCCCCN(C)C)cc4)c23)cc1`, in the data set on Quadruplex DNA [1], the deltaTm1/2 amounted to 14.8 °C. Besides, the IC50 in data set [2] is 140 nM.
Take `C[n+]1cc(NC(=O)c2ccc3ccc4ccc(C(=O)Nc5cc6ccccc6[n+](C)c5)nc4c3n2)cc2ccccc21`: the deltaTm1/2 in the data set with Quadruplex DNA [4] worked out at 21.2 °C.
Turning to `O=C(O[C@@H]1Cc2c(O)cc(O)cc2O[C@@H]1c1cc(O)c(=O)c2c(O)c(O)cc([C@H]3Oc4cc(O)cc(O)c4C[C@H]3OC(=O)c3cc(O)c(O)c(O)c3)c2c1)c1cc(O)c(O)c(O)c1`, the deltaTm1/2 in the data set on Quadruplex DNA [1] came to 0.9 °C.
In the case of `CN(C)CCCCNCc1ccc(-c2nc(-c3ccccc3)c3ccn(-c4ccc(CNCCCCN(C)C)cc4)c3n2)cc1`, the deltaTm1/2 in the data set on Quadruplex DNA [1] is 26.4 °C. Further, the IC50 in data set [2] came to 97 nM.
Turning to `CN(C)CCCCCNCc1ccc(-c2nc(-c3ccc(CNCCCCCN(C)C)cc3)c3ncn(-c4ccccc4)c3n2)cc1`, the deltaTm1/2 with Quadruplex DNA [1] amounted to 34 °C. This molecule returned an IC50 in data set [2] of 103 nM.
Taken in the same sequence, the figures for `CN(C)CCCCNCc1ccc(-c2nc(-c3ccc(CNCCCCN(C)C)cc3)c3c(ccn3-c3ccccc3)n2)cc1` were 18.6 °C and 90 nM.
In the case of `CN(C)CCCCCNCc1ccc(-c2cc3c(ccn3-c3ccccc3)c(-c3ccc(CNCCCCCN(C)C)cc3)n2)cc1`, in the data set on Quadruplex DNA [1], the deltaTm1/2 came to 22.6 °C. The IC50 in data set [2] is above 200 nM.
For `CN(C)CCCCNCc1ccc(-c2cc(-c3ccc(CNCCCCN(C)C)cc3)c3ccn(-c4ccccc4)c3n2)cc1` the same measures were 26.3 °C and 223 nM.
Turning to `CN(C)CCCCNCc1ccc(-c2nc(-c3ccc(CNCCCCN(C)C)cc3)c3ccn(-c4ccc(CNCCCCN(C)C)cc4)c3n2)cc1`, the deltaTm1/2 is above 36 °C with Quadruplex DNA [1] and 23.8 °C in the data set with Quadruplex DNA [5]. In data set [2], this molecule had an IC50 of 48 nM.
With `CN(C)CCCCNCc1ccc(-c2ccc3ccc4ccc(-c5ccc(CNCCCCN(C)C)cc5)nc4c3n2)cc1`, the deltaTm1/2 in the data set on Quadruplex DNA [1] came out at 18.5 °C. In data set [6], the CC50 is above 10000 nM. The molecule also displayed an IC50 in data set [2] of 31.2 nM.
As to `CN(C)CCCCNCc1ccc(-c2cn(-c3ccccc3)c3ncnc(-c4ccc(CNCCCCN(C)C)cc4)c23)cc1`, the deltaTm1/2 with Quadruplex DNA [1] came to 13.1 °C. The molecule also registered an IC50 in data set [2] above 500 nM.
Consider `CN(C)CCCNCc1ccc(-c2nc(-c3ccc(CNCCCN(C)C)cc3)c3ccn(-c4ccccc4)c3n2)cc1`, for which the deltaTm1/2 in the data set with Quadruplex DNA [1] stood at 25.9 °C. This molecule also gave an IC50 in data set [2] of 137 nM.
As for `CN(C)CCCCCNCc1ccc(-c2cc(-c3ccc(CNCCCCCN(C)C)cc3)c3ccn(-c4ccccc4)c3c2)cc1`, in the data set with Quadruplex DNA [1], the deltaTm1/2 is 30.9 °C. Also, the CC50 in data set [6] worked out at 3010 nM. The CC50 at 75 h in data set [3] turned out to be 2320 nM. The molecule also registered an IC50 in data set [2] of 90 nM.
For the molecule `CN(C)CCCCNCc1ccc(-c2nc(-c3ccc(CNCCCCN(C)C)cc3)c3ncn(-c4ccccc4)c3n2)cc1`, the deltaTm1/2 in the data set with Quadruplex DNA [1] amounted to 31.7 °C. Besides, the IC50 in data set [2] worked out at 79 nM.
With `CC(C)CCCCNCc1ccc(-c2cc(-c3ccc(CNCCCCC(C)C)cc3)c3ccn(-c4ccccc4)c3c2)cc1`, in the data set with Quadruplex DNA [1], the deltaTm1/2 came out at 4 °C. The same molecule had an IC50 in data set [2] above 500 nM.
`CN1CCN(CCCCNCc2ccc(-c3nc(-c4ccc(CNCCCCN5CCN(C)CC5)cc4)c4ncn(-c5ccccc5)c4n3)cc2)CC1`: in the data set with Quadruplex DNA [1], the deltaTm1/2 worked out at 30.2 °C. 115 nM corresponded to half-maximal inhibition in data set [2] (IC50).
Regarding `CN(C)CCCCNCc1ccc(-c2cc3c(ccn3-c3ccccc3)c(-c3ccc(CNCCCCN(C)C)cc3)n2)cc1`, in the data set on Quadruplex DNA [1], the deltaTm1/2 came to 21 °C. In addition, the IC50 in data set [2] came out at 87 nM.
For `CN1CCN(CCCCNCc2ccc(-c3cc(-c4ccc(CNCCCCN5CCN(C)CC5)cc4)c4ccn(-c5ccccc5)c4c3)cc2)CC1`, the deltaTm1/2 in the data set with Quadruplex DNA [1] stood at 20.4 °C. The molecule further registered an IC50 in data set [2] of 74 nM.
On to `CN(C)CCCCNCc1ccc(-c2cc(-c3ccc(CNCCCCN(C)C)cc3)c3ccn(-c4ccccc4)c3c2)cc1`, for which, in the data set with Quadruplex DNA [1], the deltaTm1/2 amounted to 23.7 °C. Moreover, the CC50 in data set [6] is 2830 nM. Further, in data set [3], the CC50 at 75 h came to 2140 nM. Further, 75 nM corresponded to half-maximal inhibition in data set [2] (IC50).
As to `O=c1c(O)cc([C@H]2Oc3cc(O)cc(O)c3C[C@H]2O)cc2c([C@H]3Oc4cc(O)cc(O)c4C[C@H]3O)cc(O)c(O)c12` [THEAFLAVIN], in data set [2], the IC50 is above 500 nM.
`CN1CCN(CCCCNCc2ccc(-c3ccc4ccc5ccc(-c6ccc(CNCCCCN7CCN(C)CC7)cc6)nc5c4n3)cc2)CC1`: the deltaTm1/2 in the data set with Quadruplex DNA [1] came to 24.1 °C. The CC50 in data set [6] was above 10000 nM. In addition, the 50% inhibitory concentration (IC50) in data set [2] was found to be 31.4 nM.
